In the assay the test system is HBV of genotype D. The class given is cell-based, hepatitis B virus. The following applies: for IC90: HepaRG cells, HBV genotype D inoculum, HBsAg, Table 1. As for the experimental part:
HepaRG cells were grown in William's E medium supplemented with 10% fetal calf serum (FCS), 100 units/ml penicillin, 100 μg/ml streptomycin, 5 μg/ml insulin and 5×10^−5 M hydrocortisone hemisuccinate (16). Cells were passaged 1/5 every two weeks by trypsination. Two to three weeks before infection cell differentiation was induced by adding 2% DMSO into the maintenance medium. The medium was exchanged every 2-3 days.
As an infectious inoculum, a 50-fold concentrated culture supernatant of HepG2 clone 2.2.15 (23) cells was used, because of an unlimited supply and a constant quality. It was prepared from freshly collected supernatants by precipitating viral particles in the presence of 6% polyethylene glycol (PEG) 8000. The pellet was resuspended in phosphate buffered saline (PBS) containing 25% FCS. Aliquots were stored at −80° C. Differentiated HepaRG cells or PHH were incubated with the concentrated infectious source, 10-fold diluted in culture medium supplemented with 4% PEG 8000 (Sigma), for 20 h at 37° C. At the end of the incubation, cells were washed three times with the culture medium and maintained in the presence of 2% DMSO and 5×10^−5 M hydrocortisone hemisuccinate and harvested at indicated times.
Competition experiments were performed in 12-well plates. Approximately 1×10^6 cells were first pre-incubated for 30 min with chemically synthesized HBV derived peptides followed by a co-incubation of cells with peptide and virus for 20 h. All competition series were performed at least twice and the results of one representative experiment are shown in each case (see FIGS. 3 to 7).
HepaRG cells were infected either in absence (0 nM) or in the presence of • 1, 5, 25, 100 and 2000 nM of • HBVpreS/2-48^myr(D), • HBVpreS/2-48^myr(C), • HBVpreS/(−11)-48^myr(C), • HBVpreS/2-48^stearoyl(C) and • HBVpreS/(−11)-48^stearoyl(C); or • 0.125; 0.25; 0.5; 0.75 and 1 nM of • HBVpreS/2-48^myr(consensus), • HBVpreS/2-48^stearoyl(consensus), • 1, 5, 25, 100 and 1000 nM of • HBVpreS/2-48^stearoyl(D), • HBVpreS/2-15^stearoyl(D), • HBVpreS/2-21^stearoyl(D), • HBVpreS/2-26^stearoyl(D) and • HBVpreS/2-33^stearoyl(D); or • 1, 5, 25, 100 and 1000 nM of • HBVpreS/2-48^stearoyl(D), • HBVpreS/2-33^stearoyl(D), • HBVpreS/5-33^stearoyl(D), • HBVpreS/5-48^stearoyl(D), • HBVpreS/9-33^stearoyl(D) and • HBVpreS/9-48^stearoyl(D); or • 1, 5, 25, 100 and 1000 nM of • HBVpreS/2-48^stearoyl(D), • HBVpreS/2-48^stearoyl(D-AS^11-15)(D), • HBVpreS/2-48^stearoyl(Ala^11-15)(D), • HBVpreS/2-48^stearoyl(Δ17-21)(D), • HBVpreS/2-48^stearoyl(Ala^17-21)(D); or • 1, 5, 25, 100 and 1000 nM of • HBVpreS/2-48^stearoyl(retroinverso)(D) and • HBVpreS/2-48^stearoyl(Ala^21,23,29,30)(D); or • 1, 5, 25, 100 and 1000 nM of • HBVpreS/2-48^stearoyl(Ala^18)(D), • HBVpreS/2-48^stearoyl(Δ11-15)(D), • HBVpreS/2-48^stearoyl(Ser^13)(D), • HBVpreS/2-48^stearoyl(Arg^11)(D).; or • 50, 100, 150, 250 and 1000 pM […] of • HBVpreS/2-48^myr(C) and • HBVpreS/2-48^stearoyl(C), wherein (C) refers to HBV genotype C Q46K.
The infectious inoculum (HBV of genotype D) and the peptides were incubated overnight. After washing, cells were maintained for another 12 days to allow viral gene expression. Cell culture supernatants from day 8-12 were collected and analyzed for secreted HBSAg using a quantitative commercially available ELISA. HBsAg values from the respective uncompleted infection were set to 100% and the degree of infection inhibition is given in % of the uncompleted infection.

Ends that are not written are not given here.

The term IC50 denotes the point on the concentration scale where inhibition reaches its midpoint. Regarding `CCCCCCCCCCCCCCCCCC(=O)NCC(=O)N[C@@H](CCC(N)=O)C(=O)N[C@@H](CC(N)=O)C(=O)N[C@@H](CC(C)C)C(=O)N[C@@H](CO)C(=O)N[C@H](C(=O)N[C@@H](CO)C(=O)N[C@@H](CC(N)=O)C(=O)N1CCC[C@H]1C(=O)N[C@@H](CC(C)C)C(=O)NCC(=O)N[C@@H](Cc1ccccc1)C(=O)N[C@@H](Cc1ccccc1)C(=O)N1CCC[C@H]1C(=O)N[C@@H](CC(=O)O)C(=O)N[C@@H](Cc1c[nH]cn1)C(=O)N[C@@H](CCC(N)=O)C(=O)N[C@@H](CC(C)C)C(=O)N[C@@H](CC(=O)O)C(=O)N1CCC[C@H]1C(=O)O)[C@@H](C)O` [HBVpreS/2-21^stearoyl], the IC50 (of genotype D) is ~8 nM.
For the molecule “HBVpreS/2-21^stearoyl(C): stearoylated residues 2 to 21 of genotype C, SEQ ID NO. 13 (GTNLSVPNPLGFFPDHQLDP; not fully specified (N-terminus); also: stearoyl)”, the “inhibition of the entry of HBV genotype D by a genotype C derived peptide (cross prevention)” value is on record as “can inhibit the entry of HBV genotype D”.
In general, IC90 refers to the concentration at which the effect reaches the 90% level. Lower therefore signals an effect from little substance. With HBVpreS/2-48^myr(C), the “inhibition of the entry of HBV genotype D by a genotype C derived peptide (cross prevention)” value is given as “can inhibit the entry of HBV genotype D” and the IC90 is ~5 nM.
For the molecule HBVpreS/2-48^stearoyl(C), the IC90 was ~1 nM.
Regarding “HBVpreS/2-48^stearoyl(D): stearoylated residues 2 to 48 of genotype D, SEQ ID NO. 16”, the concentration for an effect of 90% (IC90) is ~3 nM.

The values are drawn from patent US9562076B2, “Hydrophobic modified pres-derived peptides of hepatitis B virus (HBV) and their use as HBV and HDV entry inhibitors” (priority 2008, dated 2017).
